These results are taken from US7037644B1, “Means and methods for monitoring non-nucleoside reverse transcriptase inhibitor antiretroviral therapy and guiding therapeutic decisions in the treatment of HIV/AIDS” (ViroLogic, Inc., priority 1998, dated 2006).

Common to all, as to type: cell-based, HIV-1
For assay [1], the system named is RTV-B clone 1 (RT A98G, G190S). Briefly: Phenotypic susceptibility assay (patient RTV). Conditions: below 1 = increased susceptibility. An excerpt: (§1) The resistance test vectors containing a functional luciferase gene cassette were constructed and host cells were transfected with the resistance test vector DNA. The resistant test vectors contained patient-derived reverse transcriptase and protease sequences that were either susceptible or resistant to the antiretroviral agents, such as nucleoside reverse transcriptase inhibitors, non-nucleoside reverse transcriptase inhibitors and protease inhibitors. The resistance test vector viral particles produced by transfecting the resistance test vector DNA into host cells, either in the presence or absence of protease inhibitors, were used to infect target host cells grown either in the absence of NRTI or NNRTI or in the presence of increasing concentrations of the drug. The amount of luciferase activity produced in infected target host cells in the presence of drug was compared to the amount of luciferase produced in infected target host cells in the absence of drug. […] The IC50 values were determined by plotting percent drug inhibition vs. log10 drug concentration.
(§2) Host cells were seeded in 10-cm-diameter dishes and were transfected several days after plating with resistance test vector plasmid DNA and the envelope expression vector. […] HIV capsid protein (p24) levels in the harvested cell culture media were determined by an EIA method as described by the manufacturer (SIAC; Frederick, Md.). […] The inhibitory effect of the drug was determined using the following equation: % luciferase inhibition=1−(RLUluc [drug]÷RLUluc)×100 where RLUluc [drug] is the relative light unit of luciferase activity in infected cells in the presence of drug and RLUluc is the Relative Light Unit of luciferase activity in infected cells in the absence of drug. […]
A resistant test vector was constructed as described in Example 1 from a patient sample designated B. The anti-retroviral treatment this patient received is unknown. […] An IC50 was determined for the resistance test vector clone for each drug tested. […]

The test system of assay [2] is RTV-1060, patient 98-1060 (RT K101E, G190S). Briefly: Phenotypic susceptibility assay (patient RTV). Conditions: patient RTV pool.
Description: as §1, §2
A resistance test vector was constructed as described in Example 1 from a patient sample designated 98-644. […] RTV-644 and RTV-1060 were then tested in a phenotypic, assay to determine accurately and quantitatively the level of susceptibility to a panel of anti-retroviral drugs. […]

Assay [3] deals with RTV-1033, patient 98-1033 (RT V106A, V189L, F227L). Briefly: Phenotypic susceptibility assay (patient RTV). Conditions: patient RTV pool. An excerpt: (§3) The resistance test vectors containing a functional luciferase gene cassette were constructed and host cells were transfected with the resistance test vector DNA. The resistant test vectors contained patient-derived reverse transcriptase and protease sequences that were either susceptible or resistant to the antiretroviral agents, such as nucleoside reverse transcriptase inhibitors, non-nucleoside reverse transcriptase inhibitors and protease inhibitors. The resistance test vector viral particles produced by transfecting the resistance test vector DNA into host cells, either in the presence or absence of protease inhibitors, were used to infect target host cells grown either in the absence of NRTI or NNRTI or in the presence of increasing concentrations of the drug. The amount of luciferase activity produced in infected target host cells in the presence of drug was compared to the amount of luciferase produced in infected target host cells in the absence of drug. Drug resistance was measured as the amount of drug required to inhibit by 50% the luciferase activity detected in the absence of drug (inhibitory concentration 50%, IC50). The IC50 values were determined by plotting percent drug inhibition vs. log10 drug concentration.
(§4) Host cells were seeded in 10-cm-diameter dishes and were transfected several days after plating with resistance test vector plasmid DNA and the envelope expression vector. Transfections were performed using a calcium-phosphate precipitation procedure. The cell culture media containing the DNA precipitate was replaced with fresh medium, from one to 24 hours, after transfection. Cell culture media containing resistance test vector viral particles was harvested one to four days after transfection and was passed through a […] filter before being stored at […]. HIV capsid protein (p24) levels in the harvested cell culture media were determined by an EIA method as described by the manufacturer (SIAC; Frederick, Md.). Before infection, target cells (293 and 293/T) were plated in cell culture media. Control infections were performed using cell culture media from mock transfections (no DNA) or transfections containing the resistance test vector plasmid DNA without the envelope expression plasmid. One to three or more days after infection the media was removed and cell lysis buffer (Promega) was added to each well. Cell lysates were assayed for luciferase activity (FIG. 3). The inhibitory effect of the drug was determined using the following equation: % luciferase inhibition=1−(RLUluc [drug]÷RLUluc)×100 where RLUluc [drug] is the relative light unit of luciferase activity in infected cells in the presence of drug and RLUluc is the Relative Light Unit of luciferase activity in infected cells in the absence of drug. IC50 values were obtained from the sigmoidal curves that were generated from the data by plotting the percent inhibition of luciferase activity vs. the log10 drug concentration. The drug inhibition curves are shown in (FIG. 3).
A resistance test vector was constructed as described in Example 1 from a patient sample designated 98-1033. […]

A further assay has as its system P236L-RTV. As to the kind of experiment: Phenotypic susceptibility assay (site directed mutant RTV). Conditions: P236L alone vs wild type reference RTV; also statements 'codon 236 alone or in combination'.
Description: as §3, §4
(§5) Genotypic changes that are observed to correlate with changes in phenotypic patterns of drug susceptibility are evaluated by construction of resistance test vectors containing the specific mutation on a defined, wild-type (drug susceptible) genetic background. Mutations may be incorporated alone and/or in combination with other known drug resistance mutations that are thought to modulate the susceptibility of HIV to a certain drug or class of drugs. Mutations are introduced into the resistance test vector through any of the widely known methods for site-directed mutagenesis. In one embodiment of this invention the mega-primer PCR method for site-directed mutagenesis is used. […]

In assay [4] the test system is RTV with P225H plus K103N, Y181C or both. Described as above. Conditions: P225H with K103N and/or Y181C vs RTV lacking P225H; also statements 'codon 225 alone or in combination with 103'.
Description: as §3, §4, §5

The next assay concerns K101E-G190A-RTV. The assay is described as above. Conditions: for change in susceptibility (fold, IC50) vs wild type control RTV: K101E and G190A; for change in susceptibility: mutations at codons 101 and 190 (190A).
Description: as §3, §4
(§6) The K101E, K103N and G190A mutations were introduced alone and in combination into resistance test vectors using the mega-primer method for site-directed mutagenesis (Sakar and Sommar, Ibid.).

The subject of a further assay is K103N-G190A-RTV. The assay is described as above. Conditions: for loss of susceptibility (fold, IC50) vs wild type control RTV: K103N and G190A; for change in susceptibility: mutations at codons 103 and 190.
Description: as §3, §4, §6

“Also recorded” adds a separate entry of the source.

Consider `CC(C)Nc1cccnc1N1CCN(C(=O)c2cc3cc(NS(C)(=O)=O)ccc3[nH]2)CC1` [delavirdine], for which, in assay [1], the “change in susceptibility (fold, IC50)” value was found to be 0.55 fold. Further, the “decrease in susceptibility (fold, IC50)” value is reported as 1.5 fold in assay [2] and 30 fold in assay [3]. Moreover, the “change in susceptibility” value is “less susceptible; also recorded: significant reduction; also recorded: decreased susceptibility; also recorded: decrease” with P236L-RTV, “more susceptible; also recorded: increase; also recorded: decreases the amount of delavirdine resistance” in assay [4], “slight loss of susceptibility; also recorded: no change” in the assay with K101E-G190A-RTV and “slight loss of susceptibility; also recorded: moderate decrease” with K103N-G190A-RTV. Moreover, the “change in susceptibility (fold, IC50) vs wild type control RTV” value with K101E-G190A-RTV is listed as 2 fold. Also, the “loss of susceptibility (fold, IC50) vs wild type control RTV” value (“loss of susceptibility (fold, IC50)” for short) in the assay with K103N-G190A-RTV is listed as 40 fold.
Take `O=C1Nc2ccc(Cl)cc2[C@@](C#CC2CC2)(C(F)(F)F)O1` [efavirenz]: the “change in susceptibility (fold, IC50)” value in assay [1] is recorded as 250 fold. The results for the “decrease in susceptibility (fold, IC50)” value in assay [2] and in assay [3] were 900 fold and 200 fold, respectively. The “change in susceptibility” value is given as “no effect” in the assay with P236L-RTV, “little or no change” in assay [4], “significant decrease” with K101E-G190A-RTV and “significant decrease” with K103N-G190A-RTV. The “change in susceptibility (fold, IC50) vs wild type control RTV” value in the assay on K101E-G190A-RTV stood at 120 fold. Also, the “loss of susceptibility (fold, IC50)” value in the assay on K103N-G190A-RTV amounted to 215 fold.
Consider `Cc1ccnc2c1NC(=O)c1cccnc1N2C1CC1` [nevirapine], for which the “change in susceptibility (fold, IC50)” value in assay [1] came to 640 fold. Further, the “decrease in susceptibility (fold, IC50)” value in assay [2] and in assay [3] was “greater than 800 fold” in each case. Besides, the “change in susceptibility” value in the assay with P236L-RTV is “no significant change; also recorded: little or no change; also recorded: little or no reduction; also recorded: no reduction”; in assay [4] it was “did not significantly change; also recorded: little or no change; also recorded: does not decrease; also recorded: no effect”; in the assay on K101E-G190A-RTV it was “substantial decrease”; in the assay on K103N-G190A-RTV it was “substantial decrease”. Moreover, the “change in susceptibility (fold, IC50) vs wild type control RTV” value in the assay with K101E-G190A-RTV is listed as “greater than 800 fold”. The “loss of susceptibility (fold, IC50)” value in the assay on K103N-G190A-RTV was “greater than 800 fold”.
